Assay results from the CheMixHub ionic liquid set.
Where “and” joins values, the source holds several entries; their conditions need not be identical. Identical values can stand only once.

Test: xn = mol fraction of the nth substance listed

CC(=O)[O-].CCCC[n+]1ccn(C)c1 + CCCC[n+]1ccn(C)c1.O=S(=O)([N-]S(=O)(=O)C(F)(F)F)C(F)(F)F
101 kPa
Conditions | electrical conductivity [S/m] | viscosity
283.15 K, x2 = 0 | 0.0145 | 1815 mPa·s
283.15 K, x2 = 0.1057 | 0.0213 | 1212 mPa·s
283.15 K, x2 = 0.3662 | 0.0403 | 565 mPa·s
298.15 K, x2 = 0.8097 | 0.28 | 73 mPa·s
303.15 K, x1 = 0.5001 | – | 100 mPa·s
303.15 K, x1 = 0.7497 | – | 161.5 mPa·s
313.15 K, x2 = 0 | 0.138 | 154 mPa·s
313.15 K, x2 = 0.1057 | 0.168 | 128 mPa·s
313.15 K, x2 = 0.3662 | 0.236 | 82 mPa·s
313.15 K, x2 = 0.6541 | 0.387 | 49.4 mPa·s
313.15 K, x2 = 0.8097 | 0.504 | 38.2 mPa·s
314.3 K, x2 = 0 | – | 126 mPa·s and 138 mPa·s
314.3 K, x2 = 0.7282 | 0.474 | 39.2 mPa·s
323.15 K, x1 = 0.7497 | – | 56 mPa·s
333.15 K, x2 = 0.1057 | 0.416 | 47.4 mPa·s

CC1CC(=O)O1 (centres undefined) + CCCC[n+]1ccn(C)c1.O=S(=O)([N-]S(=O)(=O)C(F)(F)F)C(F)(F)F
electrical conductivity [S/m], 100 kPa, frequency 0.01 MHz
Conditions | 293.15 K | 298.15 K | 303.15 K | 308.15 K | 313.15 K | 318.15 K | 323.15 K
x2 = 0.0493 | 0.874 | 0.942 | 1.02 | 1.1 | 1.2 | 1.29 | 1.38
x2 = 0.1001 | 1.1 | 1.22 | 1.34 | 1.48 | 1.62 | 1.74 | 1.89
x2 = 0.1526 | 1.21 | 1.34 | 1.49 | 1.64 | 1.8 | 1.94 | 2.12
x2 = 0.2001 | 1.2 | 1.32 | 1.47 | 1.62 | 1.79 | 1.97 | 2.16
x2 = 0.3001 | 1.02 | 1.15 | 1.28 | 1.42 | 1.58 | 1.76 | 1.96
x2 = 0.4013 | 0.782 | 0.883 | 1 | 1.13 | 1.26 | 1.43 | 1.61
x2 = 0.5004 | 0.619 | 0.701 | 0.804 | 0.91 | 1.02 | 1.16 | 1.3
x2 = 0.5995 | 0.505 | 0.58 | 0.67 | 0.754 | 0.857 | 0.976 | 1.1
x2 = 0.6929 | 0.437 | 0.504 | 0.584 | 0.665 | 0.758 | 0.865 | 0.992
x2 = 0.814 | 0.39 | 0.451 | 0.521 | 0.592 | 0.677 | 0.775 | 0.886
x2 = 0.9001 | 0.353 | 0.417 | 0.484 | 0.557 | 0.645 | 0.74 | 0.837

CC1COC(=O)O1 (centres undefined) + CCCC[n+]1ccn(C)c1.O=S(=O)([N-]S(=O)(=O)C(F)(F)F)C(F)(F)F
101.3 kPa
Conditions | viscosity [mPa·s]
293.15 K, x2 = 0.8776 | 51
298.15 K, x2 = 0.1013 | 4.029
298.15 K, x2 = 0.7 | 28.89
303.15 K, x2 = 0.8079 | 29.79
303.15 K, x2 = 0.8776 | 33.75
308.15 K, x2 = 0.1013 | 3.249
308.15 K, x2 = 0.1557 | 4.102
308.15 K, x2 = 0.4128 | 9.65
308.15 K, x2 = 0.5045 | 12.33
313.15 K, x2 = 0.5045 | 10.67
318.15 K, x2 = 0.7 | 15.35
323.15 K, x2 = 0.7 | 13.28
333.15 K, x2 = 0.8776 | 13.61
338.15 K, x2 = 0.3071 | 3.659
348.15 K, x2 = 0 | 1.14
348.15 K, x2 = 0.1557 | 2.025
